pIC50: −log10 of the molar value.
Legend:
[1] = system: Vasopressin V1; experiment: Vasopressin V1 Antagonist Activity in Conscious Rats (vasopressin vasopressor response); format: in vivo, rat; set-up: Average Change: unit not given here; conditions: for % Inhibition / Average Change: SHR
How it was run: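 Conscious rats are restrained supine, and under local 2% procaine a PE 10/20 cannula is passed through the ventral caudal tail artery into the lower abdominal aorta. The caudal vein is cannulated for intravenous dosing. Blood pressure is recorded with a Statham P23Db transducer, and vasopressin injections are repeated after compound dosing. Percent antagonism is calculated against the pre-drug vasopressor response taken as 100%.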

[2] = system: Vasopressin V2; experiment: Vasopressin V2 Antagonist Activity in Conscious Hydrated Rats; format: in vivo, rat; conditions: AVP 0.4 μg/kg i.p.
How it was run: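 Four-hour urine output, osmolality and electrolytes (Na+, K+, Cl−) recorded in water-loaded rats (30 mL/kg deionized water orally) given AVP i.p. at 0.4 μg/kg. Test compounds were given orally at 0.1–100 mg/kg 1 h before AVP; 2–4 rats per compound.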

[3] = molecular target: T1, Rat Kidney Medullary V2 Receptors (Rattus norvegicus, UniProt Q00788); experiment: Binding Assay to Rat Kidney Medullary V2 Receptors; conditions: rat kidney medulla membranes; read-out: V2 IC50
T1 construct: Medullary tissues from rat kidneys are dissected out; from tissue; host or cells: rat kidney medulla membranes
T1 sequence (Q00788 whole entry): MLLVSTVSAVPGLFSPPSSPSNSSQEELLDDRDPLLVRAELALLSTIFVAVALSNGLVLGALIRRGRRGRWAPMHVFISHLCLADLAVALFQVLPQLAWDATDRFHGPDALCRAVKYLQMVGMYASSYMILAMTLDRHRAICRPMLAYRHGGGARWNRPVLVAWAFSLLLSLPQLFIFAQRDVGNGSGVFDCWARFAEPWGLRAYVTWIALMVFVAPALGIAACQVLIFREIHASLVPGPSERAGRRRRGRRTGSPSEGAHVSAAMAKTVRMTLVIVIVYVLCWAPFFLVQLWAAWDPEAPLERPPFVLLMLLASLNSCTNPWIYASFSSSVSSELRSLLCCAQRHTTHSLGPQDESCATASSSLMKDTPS
How it was run: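 Membranes were prepared from rat kidney medulla and stored in 50.0 mM Tris-HCl pH 7.4 with 0.2% BSA and 0.1 mM PMSF. Radioligand competition ran 120 min at bench temperature, with 1.0 μM unlabeled ligand defining nonspecific binding. Compounds were added in 50% DMSO; filtration, tritium scintillation counting, IC50 from competition analysis.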

[4] = molecular target: T2, Rat Hepatic V1 Receptors (Rattus norvegicus, UniProt P30560); experiment: Binding Assay to Rat Hepatic V1 Receptors; conditions: rat liver membranes; read-out: V1 IC50
T2 construct: Rat liver plasma membranes expressing the vasopressin V1 receptor subtypes; from tissue; host or cells: rat liver plasma membranes
T2 sequence (P30560 whole entry): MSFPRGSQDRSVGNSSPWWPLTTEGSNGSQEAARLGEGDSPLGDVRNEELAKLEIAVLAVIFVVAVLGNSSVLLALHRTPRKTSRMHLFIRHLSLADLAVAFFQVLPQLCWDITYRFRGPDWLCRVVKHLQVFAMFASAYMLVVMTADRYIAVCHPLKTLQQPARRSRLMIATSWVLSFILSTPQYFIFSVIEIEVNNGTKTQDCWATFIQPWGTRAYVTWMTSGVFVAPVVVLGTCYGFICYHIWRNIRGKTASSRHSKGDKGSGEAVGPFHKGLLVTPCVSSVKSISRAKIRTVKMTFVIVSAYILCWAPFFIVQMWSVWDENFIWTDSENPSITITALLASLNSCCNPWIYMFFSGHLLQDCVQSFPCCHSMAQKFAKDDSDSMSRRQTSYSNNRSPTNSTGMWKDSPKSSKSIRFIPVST

[5] = 10 mg/kg i.v., VAS 0.01 i.u./kg, 30 min
[6] = 10 mg/kg i.v., VAS 0.01 i.u./kg, 60 min
[7] = 10 mg/kg i.v., VAS 0.01 i.u./kg, 90 min
[8] = 10 mg/kg i.v., VAS 0.01 i.u./kg, 120 min
[9] = 10 mg/kg i.v., VAS 0.01 i.u./kg, 180 min
[10] = 10 mg/kg i.v., VAS 0.01 i.u./kg, 240 min
[11] = 10 mg/kg i.v., VAS 0.01 i.u./kg, 300 min
[12] = 10 mg/kg i.v., VAS 0.02 i.u./kg, 30 min
[13] = 10 mg/kg i.v., VAS 0.02 i.u./kg, 60 min
[14] = 10 mg/kg i.v., VAS 0.02 i.u./kg, 90 min
[15] = 10 mg/kg i.v., VAS 0.02 i.u./kg, 120 min
[16] = 10 mg/kg i.v., VAS 0.02 i.u./kg, 180 min
[17] = 10 mg/kg i.v., VAS 0.02 i.u./kg, 240 min
[18] = 10 mg/kg i.v., VAS 0.02 i.u./kg, 300 min

Row | Compound | pIC50 [3] | pIC50 [4] | Osmolality ([2]; 10 mg/kg orally) | Urine Volume ([2]; 10 mg/kg orally) | % Inhibition [1, 5] | Average Change [1, 5] | % Inhibition [1, 6] | Average Change [1, 6] | % Inhibition [1, 7] | Average Change [1, 7] | % Inhibition [1, 8] | Average Change [1, 8] | % Inhibition [1, 9] | Average Change [1, 9] | % Inhibition [1, 10] | Average Change [1, 10] | % Inhibition [1, 11] | Average Change [1, 11] | % Inhibition [1, 12] | Average Change [1, 12] | other results
1 | O=C(Nc1ccc(C(=O)N2Cc3cccn3Cc3ccccc32)cc1)c1ccccc1F [Example 8, N-[4-(5H-pyrrolo[2,1-c][1,4]benzodiazepin10(11H)-ylcarbonyl)phenyl]-2-fluorobenzamide] | 7.46 | 7.25 | 1211 mOsm/kg | 3.4 ml/4 hrs | 61% | 14.5 | 61% | 14.5 | 73% | 10 | 69% | 11.5 | 62% | 14 | 59% | 15 | 51% | 18 | 54% | 23.5 | % Inhibition [1, 13]: 58%; Average Change [1, 13]: 21.5; % Inhibition [1, 14]: 66%; Average Change [1, 14]: 17.5; % Inhibition [1, 15]: 70%; Average Change [1, 15]: 15.5; % Inhibition [1, 16]: 46%; Average Change [1, 16]: 28; % Inhibition [1, 17]: 44%; Average Change [1, 17]: 29; % Inhibition [1, 18]: 46%; Average Change [1, 18]: 28; Osmolality ([2]; 30 mg/kg orally): 1010 mOsm/kg; Urine Volume ([2]; 30 mg/kg orally): 9.1 ml/4 hrs
2 | O=C(Nc1ccc(C(=O)N2Cc3cccn3Cc3ccccc32)cc1)c1cccc(F)c1F [Example 1] | 7.54 | 7.01 |  |  | 88% | 4 | 51% | 16.5 | 37% | 21 | 33% | 22.5 | 13% | 29 | 19% | 27 | 4% | 32 | 85% | 8 | % Inhibition [1, 13]: 62%; Average Change [1, 13]: 20; % Inhibition [1, 14]: 49%; Average Change [1, 14]: 27; % Inhibition [1, 15]: 29%; Average Change [1, 15]: 37.5; % Inhibition [1, 16]: 9%; Average Change [1, 16]: 48; % Inhibition [1, 17]: 25%; Average Change [1, 17]: 39.5; % Inhibition [1, 18]: 25%; Average Change [1, 18]: 39.5; Osmolality ([2]; 30 mg/kg orally): 1504 mOsm/kg; Urine Volume ([2]; 30 mg/kg orally): 1.1 ml/4 hrs
3 | Cc1ccsc1C(=O)Nc1ccc(C(=O)N2Cc3cccn3Cc3ccccc32)cc1 [Example 5, N-[4-(5H-pyrrolo[2,1-c][1,4]benzodiazepin10(11H)-ylcarbonyl)phenyl]-3-methyl-2-thiophenecarboxamide] | 7.60 | 7.82 | 1079 mOsm/kg | 8.5 ml/4 hrs | 83% | 5.5 | 76% | 7.5 | 71% | 9 | 59% | 13 | 62% | 12 | 46% | 17 | 5% | 30 | 72% | 13.5 | % Inhibition [1, 13]: 78%; Average Change [1, 13]: 10.5; % Inhibition [1, 14]: 83%; Average Change [1, 14]: 8; % Inhibition [1, 15]: 69%; Average Change [1, 15]: 15; % Inhibition [1, 16]: 60%; Average Change [1, 16]: 19; % Inhibition [1, 17]: 51%; Average Change [1, 17]: 23.5; % Inhibition [1, 18]: 18%; Average Change [1, 18]: 39.5; Osmolality ([2]; 30 mg/kg orally): 955 mOsm/kg; Urine Volume ([2]; 30 mg/kg orally): 7.7 ml/4 hrs
4 | COc1ccccc1C(=O)Nc1ccc(C(=O)N2Cc3cccn3Cc3ccccc32)cc1 [Example 2, N-[4-(5H-Pyrrolo[2,1-c][1,4]benzodiazepin-10(11H)-ylcarbonyl)phenyl]-2-methoxybenzamide] | 7.85 | 7.51 | 1015 mOsm/kg | 9.3 ml/4 hrs | 79% | 6.5 | 74% | 8 | 66% | 10.5 | 69% | 9.5 | 55% | 14 | 47% | 16.5 | 44% | 17.5 | 84% | 8 | % Inhibition [1, 13]: 74%; Average Change [1, 13]: 13; % Inhibition [1, 14]: 70%; Average Change [1, 14]: 15; % Inhibition [1, 15]: 70%; Average Change [1, 15]: 15; % Inhibition [1, 16]: 56%; Average Change [1, 16]: 22; % Inhibition [1, 17]: 50%; Average Change [1, 17]: 25; % Inhibition [1, 18]: 37%; Average Change [1, 18]: 31.5; Max. % Inhibition ([1]; 30 mg/kg i.v.): 74%; Time (of max. % inhibition) ([1]; 30 mg/kg i.v.): 120 min
5 | O=C(Cc1ccccc1Cl)Nc1ccc(C(=O)N2Cc3cccn3Cc3ccccc32)cc1 [Example 9, 2-Chloro-N-[4-(5H-pyrrolo[2,1-c][1,4]-benzodiazepin-10(11H)-ylcarbonyl)phenyl]benzeneacetamide] | 8.40 | 8.15 | 702 mOsm/kg | 5.8 ml/4 hrs |  |  |  |  |  |  |  |  |  |  |  |  |  |  |  |  | Max. % Inhibition ([1]; 10 mg/kg i.v.): 95%; Time (of max. % inhibition) ([1]; 10 mg/kg i.v.): 60 min

Second part, led by results:

Row | pIC50 [3] | pIC50 [4] | Compound | Osmolality ([2]; 10 mg/kg orally) | Urine Volume ([2]; 10 mg/kg orally) | % Inhibition [1, 5] | Average Change [1, 5] | % Inhibition [1, 6] | Average Change [1, 6] | % Inhibition [1, 7] | Average Change [1, 7] | % Inhibition [1, 8] | Average Change [1, 8] | % Inhibition [1, 9] | Average Change [1, 9] | % Inhibition [1, 10] | Average Change [1, 10] | % Inhibition [1, 11] | Average Change [1, 11] | % Inhibition [1, 12] | Average Change [1, 12] | other results
6 | 7.60 | 7.01 | Cc1ccccc1NC(=O)c1ccc(C(=O)N2Cc3cccn3Cc3ccccc32)cc1 [Example 484, N-(2-Methylphenyl)-4-(5H-pyrrolo[2,1-c][1,4]-benzodiazepin-10(11H)-ylcarbonyl)benzamide] | 785 mOsm/kg | 8 ml/4 hrs |  |  |  |  |  |  |  |  |  |  |  |  |  |  |  |  | Max. % Inhibition ([1]; 10 mg/kg i.v.): 79%; Time (of max. % inhibition) ([1]; 10 mg/kg i.v.): 300 min; Max. % Inhibition ([1]; 30 mg/kg p.o.): 22%; Time (of max. % inhibition) ([1]; 30 mg/kg p.o.): 180 min
7 | 8.30 | 7.51 | Cc1cccc(C(=O)Nc2ccc(C(=O)N3Cc4cccn4Cc4ccccc43)cc2)c1C [Example 467, N-[4-(5H-pyrrolo[2,1-c][1,4]benzodiazepin-10(11H)-ylcarbonyl)phenyl]-2,3-dimethylbenzamide] | 365 mOsm/kg | 18 ml/4 hrs |  |  |  |  |  |  |  |  |  |  |  |  |  |  |  |  | Max. % Inhibition ([1]; 10 mg/kg i.v.): 65%; Time (of max. % inhibition) ([1]; 10 mg/kg i.v.): 120 min
8 | 7.18 | 6.77 | Cc1ccccc1C(=O)Nc1ccc(C(=O)N2Cc3cccn3-c3ccccc32)cc1 [Example 14, 2-Methyl-N-[4-(pyrrolo[1,2-a]quinoxalin-5 (4H)-ylcarbonyl)phenyl]benzamide] | 836 mOsm/kg | 5.2 ml/4 hrs | 25% | 26 | 23% | 26.5 | 39% | 21 | 23% | 26.5 | 6% | 32.5 | 17% | 28.5 | 26% | 25.5 | 20% | 38 | % Inhibition [1, 13]: 34%; Average Change [1, 13]: 31.5; % Inhibition [1, 14]: 16%; Average Change [1, 14]: 40; % Inhibition [1, 15]: 17%; Average Change [1, 15]: 39.5; % Inhibition [1, 16]: -9%; Average Change [1, 16]: 52; % Inhibition [1, 17]: 25%; Average Change [1, 17]: 35.5; % Inhibition [1, 18]: 16%; Average Change [1, 18]: 40; Osmolality ([2]; 3 mg/kg orally): 1000 mOsm/kg; Urine Volume ([2]; 3 mg/kg orally): 4.5 ml/4 hrs

Reference: US5624923A, “Tricyclic diazepine vasopressin antagonists and oxytocin antagonists” (priority 1995, dated 1997)
